Experimental data published in the supplement of paper PMC10307832.

Assays:
Assay in all cases: relative viability (nuclei count vs DMSO), 5 days (fraction); higher = more cells survive
COR-L 105 = test system: COR-L 105
In short: (§1)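 Lung cancer cell lines, seeded in 1536-well plates, were treated the following day by pin tool with a single drug or with five library-drug doses (not always all listed) in √10 steps on top of a fixed anchor-drug dose. Cells were fixed and nuclei stained in one step after 5 days, and nuclei were counted. Relative viability is the nuclei count for treated wells divided by that for vehicle wells, reported as medians of duplicate plates.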

COR-L23 = test system: COR-L23
In short: as §1

HARA = test system: HARA
In short: as §1

HCC-15 = test system: HCC-15
In short: as §1

HOP-62 = test system: HOP-62
In short: as §1

NCI-H1355 = test system: NCI-H1355
In short: as §1

NCI-H1395 = test system: NCI-H1395
In short: as §1

NCI-H1734 = test system: NCI-H1734
In short: as §1

NCI-H1755 = test system: NCI-H1755
In short: as §1

NCI-H1793 = test system: NCI-H1793
In short: as §1

NCI-H1993 = test system: NCI-H1993
In short: as §1

NCI-H2009 = test system: NCI-H2009
In short: as §1

NCI-H2170 = test system: NCI-H2170
In short: as §1

NCI-H2228 = test system: NCI-H2228
In short: as §1

NCI-H2347 = test system: NCI-H2347
In short: as §1

NCI-H358 = test system: NCI-H358
In short: as §1

NCI-H522 = test system: NCI-H522
In short: as §1

NCI-H647 = test system: NCI-H647
In short: as §1

NCI-H838 = test system: NCI-H838
In short: as §1

SK-MES-1 = test system: SK-MES-1
In short: as §1

UMC-11 = test system: UMC-11
In short: as §1

COc1nc(C)cnc1NS(=O)(=O)c1cccnc1-c1ccc(-c2nnco2)cc1 [Zibotentan] + Cc1cc(Nc2cc(N3CCN(C)CC3)nc(Sc3ccc(NC(=O)C4CC4)cc3)n2)n[nH]1 [Tozasertib] (partner 0.1 µM)
relative viability (COR-L 105; first compound 0.08 µM): 0.309
relative viability (COR-L 105; first compound 0.253 µM): 0.344
relative viability (COR-L 105; first compound 0.8 µM): 0.371
relative viability (COR-L 105; first compound 2.53 µM): 0.362
relative viability (COR-L23; first compound 0.08 µM): 0.218
relative viability (COR-L23; first compound 0.253 µM): 0.216
relative viability (COR-L23; first compound 0.8 µM): 0.224
relative viability (COR-L23; first compound 2.53 µM): 0.337
relative viability (HARA; first compound 0.08 µM): 0.0875
relative viability (HARA; first compound 0.253 µM): 0.102
relative viability (HARA; first compound 0.8 µM): 0.13
relative viability (HARA; first compound 2.53 µM): 0.28
relative viability (HCC-15; first compound 0.08 µM): 0.481
relative viability (HCC-15; first compound 0.253 µM): 0.314
relative viability (HCC-15; first compound 0.8 µM): 0.373
relative viability (HCC-15; first compound 2.53 µM): 0.402
relative viability (HOP-62; first compound 0.08 µM): 0.333
relative viability (HOP-62; first compound 0.253 µM): 0.371
relative viability (HOP-62; first compound 0.8 µM): 0.428
relative viability (HOP-62; first compound 2.53 µM): 0.359
relative viability (NCI-H1355; first compound 0.08 µM): 0.626
relative viability (NCI-H1355; first compound 0.253 µM): 0.537
relative viability (NCI-H1355; first compound 0.8 µM): 0.55
relative viability (NCI-H1355; first compound 2.53 µM): 0.565
relative viability (NCI-H1395; first compound 0.08 µM): 0.74
relative viability (NCI-H1395; first compound 0.253 µM): 0.762
relative viability (NCI-H1395; first compound 0.8 µM): 0.733
relative viability (NCI-H1395; first compound 2.53 µM): 0.794
relative viability (NCI-H1734; first compound 0.08 µM): 0.283
relative viability (NCI-H1734; first compound 0.253 µM): 0.253
relative viability (NCI-H1734; first compound 0.8 µM): 0.247
relative viability (NCI-H1734; first compound 2.53 µM): 0.326
relative viability (NCI-H1755; first compound 0.08 µM): 0.475
relative viability (NCI-H1755; first compound 0.253 µM): 0.58
relative viability (NCI-H1755; first compound 0.8 µM): 0.602
relative viability (NCI-H1755; first compound 2.53 µM): 0.657
relative viability (NCI-H1793; first compound 0.08 µM): 0.336
relative viability (NCI-H1793; first compound 0.253 µM): 0.352
relative viability (NCI-H1793; first compound 0.8 µM): 0.273
relative viability (NCI-H1793; first compound 2.53 µM): 0.3
relative viability (NCI-H1993; first compound 0.08 µM): 0.591
relative viability (NCI-H1993; first compound 0.253 µM): 0.583
relative viability (NCI-H1993; first compound 0.8 µM): 0.592
relative viability (NCI-H1993; first compound 2.53 µM): 0.606
relative viability (NCI-H2009; first compound 0.08 µM): 0.769
relative viability (NCI-H2009; first compound 0.253 µM): 0.72
relative viability (NCI-H2009; first compound 0.8 µM): 0.778
relative viability (NCI-H2009; first compound 2.53 µM): 0.756
relative viability (NCI-H2170; first compound 0.08 µM): 0.789
relative viability (NCI-H2170; first compound 0.253 µM): 0.693
relative viability (NCI-H2170; first compound 0.8 µM): 0.809
relative viability (NCI-H2170; first compound 2.53 µM): 0.741
relative viability (NCI-H2228; first compound 0.08 µM): 0.266
relative viability (NCI-H2228; first compound 0.253 µM): 0.239
relative viability (NCI-H2228; first compound 0.8 µM): 0.212
relative viability (NCI-H2228; first compound 2.53 µM): 0.258
relative viability (NCI-H2347; first compound 0.253 µM): 0.49
relative viability (NCI-H2347; first compound 0.8 µM): 0.432
relative viability (NCI-H2347; first compound 2.53 µM): 0.537
relative viability (NCI-H358; first compound 0.08 µM): 0.0974
relative viability (NCI-H358; first compound 0.253 µM): 0.099
relative viability (NCI-H358; first compound 0.8 µM): 0.0954
relative viability (NCI-H358; first compound 2.53 µM): 0.0945
relative viability (NCI-H522; first compound 0.08 µM): 0.573
relative viability (NCI-H522; first compound 0.253 µM): 0.606
relative viability (NCI-H522; first compound 0.8 µM): 0.599
relative viability (NCI-H522; first compound 2.53 µM): 0.568
relative viability (NCI-H647; first compound 0.08 µM): 0.307
relative viability (NCI-H647; first compound 0.253 µM): 0.183
relative viability (NCI-H647; first compound 0.8 µM): 0.298
relative viability (NCI-H647; first compound 2.53 µM): 0.262
relative viability (NCI-H838; first compound 0.08 µM): 0.284
relative viability (NCI-H838; first compound 0.253 µM): 0.229
relative viability (NCI-H838; first compound 0.8 µM): 0.274
relative viability (NCI-H838; first compound 2.53 µM): 0.329
relative viability (SK-MES-1; first compound 0.08 µM): 0.999
relative viability (SK-MES-1; first compound 0.253 µM): 0.809
relative viability (SK-MES-1; first compound 0.8 µM): 0.874
relative viability (SK-MES-1; first compound 2.53 µM): 0.877
relative viability (UMC-11; first compound 0.08 µM): 0.23
relative viability (UMC-11; first compound 0.253 µM): 0.204
relative viability (UMC-11; first compound 0.8 µM): 0.201
relative viability (UMC-11; first compound 2.53 µM): 0.203

COc1nc(C)cnc1NS(=O)(=O)c1cccnc1-c1ccc(-c2nnco2)cc1 [Zibotentan] + O=C(CCCCCCC(=O)Nc1ccccc1)NO [Vorinostat] (partner 1 µM)
relative viability (COR-L 105; first compound 0.08 µM): 0.904
relative viability (COR-L 105; first compound 0.253 µM): 0.756
relative viability (COR-L 105; first compound 0.8 µM): 0.781
relative viability (COR-L 105; first compound 2.53 µM): 0.99
relative viability (COR-L23; first compound 0.08 µM): 0.448
relative viability (COR-L23; first compound 0.253 µM): 0.446
relative viability (COR-L23; first compound 0.8 µM): 0.351
relative viability (COR-L23; first compound 2.53 µM): 0.46
relative viability (HARA; first compound 0.08 µM): 0.638
relative viability (HARA; first compound 0.253 µM): 0.633
relative viability (HARA; first compound 0.8 µM): 0.569
relative viability (HARA; first compound 2.53 µM): 0.568
relative viability (HCC-15; first compound 0.08 µM): 0.859
relative viability (HCC-15; first compound 0.253 µM): 0.863
relative viability (HCC-15; first compound 0.8 µM): 0.879
relative viability (HCC-15; first compound 2.53 µM): 0.84
relative viability (HOP-62; first compound 0.08 µM): 0.676
relative viability (HOP-62; first compound 0.253 µM): 0.57
relative viability (HOP-62; first compound 0.8 µM): 0.735
relative viability (HOP-62; first compound 2.53 µM): 0.623
relative viability (NCI-H1355; first compound 0.08 µM): 0.682
relative viability (NCI-H1355; first compound 0.253 µM): 0.584
relative viability (NCI-H1355; first compound 0.8 µM): 0.657
relative viability (NCI-H1355; first compound 2.53 µM): 0.69
relative viability (NCI-H1395; first compound 0.08 µM): 0.809
relative viability (NCI-H1395; first compound 0.253 µM): 0.502
relative viability (NCI-H1395; first compound 0.8 µM): 0.698
relative viability (NCI-H1395; first compound 2.53 µM): 0.951
relative viability (NCI-H1734; first compound 0.08 µM): 0.842
relative viability (NCI-H1734; first compound 0.253 µM): 0.705
relative viability (NCI-H1734; first compound 0.8 µM): 0.864
relative viability (NCI-H1734; first compound 2.53 µM): 0.912
relative viability (NCI-H1755; first compound 0.08 µM): 0.851
relative viability (NCI-H1755; first compound 0.253 µM): 0.742
relative viability (NCI-H1755; first compound 0.8 µM): 0.803
relative viability (NCI-H1755; first compound 2.53 µM): 0.818
relative viability (NCI-H1793; first compound 0.08 µM): 0.673
relative viability (NCI-H1793; first compound 0.253 µM): 0.673
relative viability (NCI-H1793; first compound 0.8 µM): 0.925
relative viability (NCI-H1793; first compound 2.53 µM): 0.973
relative viability (NCI-H1993; first compound 0.08 µM): 1.05
relative viability (NCI-H1993; first compound 0.253 µM): 0.764
relative viability (NCI-H1993; first compound 0.8 µM): 0.826
relative viability (NCI-H1993; first compound 2.53 µM): 0.988
relative viability (NCI-H2009; first compound 0.08 µM): 0.705
relative viability (NCI-H2009; first compound 0.253 µM): 0.705
relative viability (NCI-H2009; first compound 0.8 µM): 0.72
relative viability (NCI-H2009; first compound 2.53 µM): 0.893
relative viability (NCI-H2170; first compound 0.08 µM): 0.883
relative viability (NCI-H2170; first compound 0.253 µM): 0.778
relative viability (NCI-H2170; first compound 0.8 µM): 0.875
relative viability (NCI-H2170; first compound 2.53 µM): 0.908
relative viability (NCI-H2228; first compound 0.08 µM): 0.805
relative viability (NCI-H2228; first compound 0.253 µM): 0.719
relative viability (NCI-H2228; first compound 0.8 µM): 0.613
relative viability (NCI-H2228; first compound 2.53 µM): 0.92
relative viability (NCI-H2347; first compound 0.08 µM): 0.622
relative viability (NCI-H2347; first compound 0.253 µM): 0.566
relative viability (NCI-H2347; first compound 0.8 µM): 0.658
relative viability (NCI-H2347; first compound 2.53 µM): 0.744
relative viability (NCI-H358; first compound 0.08 µM): 0.563
relative viability (NCI-H358; first compound 0.253 µM): 0.552
relative viability (NCI-H358; first compound 2.53 µM): 0.751
relative viability (NCI-H522; first compound 0.08 µM): 0.928
relative viability (NCI-H522; first compound 0.253 µM): 0.887
relative viability (NCI-H522; first compound 0.8 µM): 1.03
relative viability (NCI-H522; first compound 2.53 µM): 0.946
relative viability (NCI-H647; first compound 0.08 µM): 0.649
relative viability (NCI-H647; first compound 0.253 µM): 0.381
relative viability (NCI-H647; first compound 0.8 µM): 0.718
relative viability (NCI-H647; first compound 2.53 µM): 0.698
relative viability (NCI-H838; first compound 0.08 µM): 0.762
relative viability (NCI-H838; first compound 0.253 µM): 0.716
relative viability (NCI-H838; first compound 0.8 µM): 0.757
relative viability (NCI-H838; first compound 2.53 µM): 0.771
relative viability (SK-MES-1; first compound 0.08 µM): 1.18
relative viability (SK-MES-1; first compound 0.253 µM): 0.793
relative viability (SK-MES-1; first compound 0.8 µM): 1.09
relative viability (SK-MES-1; first compound 2.53 µM): 1.12
relative viability (UMC-11; first compound 0.08 µM): 0.408
relative viability (UMC-11; first compound 0.253 µM): 0.418
relative viability (UMC-11; first compound 0.8 µM): 0.384
relative viability (UMC-11; first compound 2.53 µM): 0.293
